These results are taken from patent US4442098A, “Pentacyclic derivatives of piperazine” (Beecham Group Limited, priority 1980, dated 1984).

By ED50 is commonly meant the midpoint of the dose-response relation.

Molecules are shown by their SMILES. Where two headings read alike, the source gives them in different places.

In the assay the test system is central 5HT. The assay can be described thus: inhibition of behavioural symptoms (forepaw tapping, head jerks, splayed limbs) induced by 5-methoxy-N,N-dimethyltryptamine in mice. As to conditions: 1 h pretreatment, 10 mg/kg ip 5-methoxy-N,N-dimethyltryptamine; for ED50: Mus musculus, 1 h, read-out: ED50 (dose of compound inhibiting the symptoms by 50%). The format is in vivo, mice (male CD-1 Charles Rine). As for the experimental part: Mice (.male. CD^-1 Charles Rine) are pretreated with the compounds 10 animals/group under investigation and 1 h later one group is injected with 10 mg/kg ip 5-methoxy-N,N-dimethyltryptamine (Sigma). The symptoms of forepaw tapping movements, head jerks and splayed limbs are scored: 1, present; 0, absent, giving a maximum score of 3/mouse or 30/group. Results are expressed as the percentage inhibition compared to the group treated with 5-methoxy-N,N-dimethyl tryptamine alone. The dose of compound inhibiting the symptoms by 50% is determined graphically.

For the molecule `CN1CC2CC(=O)c3cccc4c3N2C(C1)c1ccccc1O4` (stereo not shown) [Compound 16, 2-methyl,1,3,4,14b-tetrahydro 4,6-ethano-2H-dibenzo[bf]pyrazino[1,2-d][1,4]oxazepin-15-one], under “po, p.o.”, the ED50 was 10 mg/kg.

Take `CN1CC2CC(=O)c3cccc4c3N2C(C1)c1ccccc1C4` (stereo not shown) [Compound 1, 1,2,3,3a,4,5,9,13b-Octahydro-2-methyl-2-benzazepino[4,3,2-ij]pyrazino[1,2-a]quinolin-5-one]: the ED50 (po, p.o.) was 12 mg/kg. With `CN1CC2CC(O)c3cccc4c3N2C(C1)c1ccccc1C4` (single isomer, unassigned) [Compound 4, 1,2,3,3a,4,5,9,13b-Octahydro-2-methyl-2-benzazepino[4,3,2-ij]pyrazino[1,2-a]quinolin-5-ol], the median effective dose (ED50) (ip, i.p.) stood at 0.3 mg/kg. With `CN1CC2CCc3cccc4c3N2C(C1)c1ccccc1C4` (stereo not shown) [Compound 6, 1,2,3,3a,4,5,9,13b Octahydro-2-methyl-2-benzazepino[4,3,2-ij]pyrazino[1,2-a]quinoline], the ED50 (po, p.o.) is 10 mg/kg. Same read-out and setting: in the case of `CN1CC2CC(=NO)c3cccc4c3N2C(C1)c1ccccc1C4` (stereo not shown) [Compound 8, 1,2,3,3a,4,5,9,13b-octahydro-2-methyl-2-benzazepino[4,3,2-ij]-pyrazino[1,2-a]-5-oxaminoquinoline] it was 3 mg/kg. As for `CN1CC2CCc3cccc4c3N2C(C1)c1ccccc1C4` (stereo not shown) [Compound 7, 1,2,3,3a,4,5,9,13b-octahydro-2-methyl-2-benzazepino[4,3,2-ij]pyrazino[1,2-a]quinoline], for the setting “p.o., 60 min”, the “ED50 (dose of compound inhibiting the symptoms by 50%)” value is listed as 13 mg/kg. As to `CN1CC2CC(O)c3cccc4c3N2C(C1)c1ccccc1C4` (single isomer, unassigned) [Compound 3, 1,2,3,3a,4,5,9,13b-Octahydro-2-methyl-2-benzazepino[4,3,2-ij]pyrazino[1,2-a]quinolin-5-ol], the ED50 (po, p.o.) turned out to be 0.65 mg/kg.
